# Test results: article PMC8362126, “Proteolysis Targeting Chimera (PROTAC) for Macrophage Migration Inhibitory Factor (MIF) Has Anti‐Proliferative Activity in Lung Cancer Cells” (Angewandte Chemie (International Ed. in English), 2021)
# Values joined by “and” are separate entries in the source; they are usually repeats but may differ in a detail not shown here. Identical values can stand only once. “Also recorded” adds a separate entry of the source.
# What was measured:
# A549 cells = test: Cell cycle analysis by flow cytometry (propidium iodide); type: cell-based, human; conditions: 48 h; for proportion of cells at the G2/M phase: control group 12 %
# Procedure: The effect of MIF‐directed PROTAC MD13 on cell cycle progression was further analyzed using flow cytometry (Figure 6). A549 cells were treated with MD13 at concentrations of 1, 2, or 5 μM for the duration of 48 h before analysis using flow cytometry. […] The proportion of cells at the G2/M phase is 12 % for the control group. This percentage increases to 17 %, 19 %, and 23 % upon treatment with 1, 2, and 5 μM MD13, respectively. […]
# Flow cytometry. For cell cycle analysis, A549 cells were seeded in 6 -well plates at a density of 1x10^5 per well. The next day, the cells were treated with the appropriate compound or vehicle for 48h. Subsequently, the cells were washed with PBS (3 ×) and then harvested after trypinzation. After centrifugation at 300g, the cells were incubated with a solutio n containing 20 µg/ml propidium iodide (PI) (Sigma, P4864) and 0.1% (v/v) Triton -X100 (Sigma, T8787) for 15 min at room temperature. Fluorescence was detected by a Cytoflex flow cytometer […]
# (1 picture or pasted object on this page, not shown here)
# (Beckman Coulter, Woerden, the Netherlands) immediately. 30,000 cells were collected for each sample. Data were analyzed using FlowJo software (Tree start, Ashland, USA). […]
# ERK phosphorylation = ERK phosphorylation by western blot; type: cell-based, human; conditions: A549, 2 μM; for effect on pERK levels: 3 and 4 for 24 h, MD15 for 6, 24 or 48 h
# Procedure: The effect of treatment with MIF‐directed PROTAC MD13 on MIF‐related signaling pathways was investigated by assessment of ERK phosphorylation using western blot analysis. […] Thus treatment with the MIF‐directed PROTAC MD13 inhibits ERK phosphorylation as a MIF‐related signaling event. […]
# ERK signaling pathway study. A549 cells (2x10^5 cells per well) were seeded into each well of a 6-well plate with 2 mL RPMI-1640 medium containing 10% FBS (Costar Europe, Badhoevedorp, The Netherlands), and 1% penicillin/streptomycin solution (Corning). After overnight culturing, the cells were treated with MD13, MD15, or DMSO for the time indicated.
# After that, cells were lysed by RIPA buffer containing 1× PhosSTOP and protease inhibitor (PI) cocktail (Roche, Mannheim, Germany). The BCA Protein Assay Kit (Pierce, Rockford IL, USA) was used to determine the protein concentration. 30 µg protein was separated by a pre-cast 10% NuPAGE Bis-Tris gel (Invitrogen, USA) and then transferred to a polyvinylidene difluoride (PVDF) membrane. After blocking with 5% of skimmed milk for 1 hour at room temperature and incubation with the appropriate primary antibody (pERK, #9101, Cell Signaling, 1:1000; GAPDH, #97166, Cell Signaling, 1:10000) overnight at 4 °C, the membrane was treated with an HRP-conjugated secondary goat anti-rabbit antibody (#P0448, Dako, 1:2000) or rabbit anti-mouse antibody (#P0260, Dako, 1:2000) at room temperature for 1 hour.
# The protein bands were visualized with enhanced chemiluminescence (ECL) solution (GE Healthcare). The figures were quantified with imageJ software based on grayscale. […]
# MIF [1] = molecular target: T1, MIF (Homo sapiens, UniProt P14174); test: MIF degradation in A549 cells, western-blot; type: cell-based; set-up: endogenous in cells; host or cells: A549 (ATCC CCL-185)
# T1 sequence (P14174 2-115 limits assumed): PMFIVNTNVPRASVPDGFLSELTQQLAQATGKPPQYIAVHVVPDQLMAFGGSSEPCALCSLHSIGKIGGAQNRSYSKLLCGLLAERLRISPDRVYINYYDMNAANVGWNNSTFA
# Procedure: The concentration dependence of PROTAC MD13‐mediated induction of MIF degradation in A549 cells was investigated using western‐blot. […] The MIF levels were normalized to the vehicle treated control and plotted to the respective MD13 concentrations. This provided a DC50 of around 100 nM and a maximal degradation of around 90–95 % at concentrations higher than 1 μM (Figure 3 B). The DC50 of MD13 measured by ELISA assay was about 200 nM (Figure 3 C), which is in line with the result from western‐blot. […]
# Cell lysates were prepared using the protocol described above. About 10−40 μg of total protein was mixed with the 4× Laemmli Loading Dye (250 mM Tris, pH 6.8, 40% glycerol, 5% SDS, 0.005% bromophenol blue, 4% β-mercaptoethanol) and heated at 95−100 °C for 5 min and loaded onto a 12% Bis-Tris gel (Bio-Rad Laboratories, #4561084) and proteins were separated at 120V. Afterwards, proteins were transferred to polyvinylidene fluoride (PVDF) membranes, subsequently non-specific antibody binding was blocked with 5% nonfat dry milk (BIO-RAD, #1706404) in TBST buffer and incubated overnight at 4 °C with one of the following primary antibodies: anti-MIF (1:1000, ThermoFisher, #PA5-27343 ) or anti-β-actin (1:10000 Cell Signalling, #8457). The membranes were further incubated with a goat anti-rabbit HRP-conjugated secondary antibody (1:2000, DAKO, p0448) for 2 h at room temperature. Proteins were visualized with an ECLTM Prime Western Blotting System (GE Healthcare #RPN2232). The immunoblot was generated by ChemiDoc MP Imaging Systems (Bio-Rad) and analyzed by the ImageJ software. […]
# As a control, the same experiment was repeated and analyzed by a western-blot assay (Figure 3B). The potency estimated from the Western blot assay was 1 µM (Figure 3C), which is consistent with the result from the ELISA assay. The “Hook effect” […]
# MIF [2] = molecular target: T1, MIF; test: MIF degradation in A549 cells, cell lysate-based ELISA; set-up: endogenous in cells; host or cells: A549 (ATCC CCL-185); conditions: 12 h, vs DMSO, mean±SD n=3
Compound,proportion of cells at the G2/M phase (A549 cells; 1 μM) [%],proportion of cells at the G2/M phase (A549 cells; 2 μM) [%],proportion of cells at the G2/M phase (A549 cells; 5 μM) [%],"inhibition at 2 µM (ERK phosphorylation; Homo sapiens, 24-hour treatment) [%]","Dmax (MIF [1]; A549, A549 cells, 12 h, western-blot, concentrations higher than 1 μM, read-out: maximal degradation (Dmax)) [%]","reduction of MIF protein levels within 3 hours (MIF [1]; A549 cells, 3 hours)","maximal degradation (Dmax) (MIF [1]; A549 cells, 12 h, western-blot, concentrations higher than 1 μM) [%]","DC50 (MIF [1]; A549 cells, 12 h, western-blot, read-out: DC50)","recovery of the MIF levels after 48 h (MIF [1]; A549 cells, 48 h)","MIF degradation after 6 h (MIF [1]; A549 cells, time course, 6 h) [%]","time of treatment after which MIF degradation becomes visible (MIF [1]; A549 cells, MD9 at 10 μM) [h]",degradation [%] 0.2 μM (MIF [2]),effect on the cell cycle (A549 cells; 5 μM),effect on pERK levels (ERK phosphorylation),"effect on MIF level relative to control (MIF [1]; A549 cells, 12 hours, inactive control experiment)","rescue of MD9 mediated MIF degradation (MIF [1]; A549 cells, 2 hours pretreatment (1 100 µM, 3 50 µM, 4 50 µM, Bortezomib), then 10 µM MD9 12 h)","rescue of MD13 mediated MIF degradation (MIF [1]; A549 cells, co-treatment (Bortezomib) or 1 hour pretreatment (3, 4) with MD13)"
O=C1CCC(N2C(=O)c3cccc(NCCCCCCCC(=O)Nc4ccc(N5Cc6ccc(O)cc6OC5=O)cc4)c3C2=O)C(=O)N1 (stereo not shown) [MD13],17,19,23,~50,90 to 95,about 80%,> 90,~100 nM and < 100 nM,slight recovery,> 92,3,71% and 71±7%,–,–,–,–,–
CN1C(=O)CCC(N2C(=O)c3cccc(NCCCCCCCC(=O)Nc4ccc(N5Cc6ccc(O)cc6OC5=O)cc4)c3C2=O)C1=O (stereo not shown) [MD15],–,–,–,–,–,–,–,–,–,–,–,not capable of inducing MIF degradation and n.s.,little or no effect,no significant decrease,not able to reduce the MIF levels; also recorded: no effect on MIF protein level,–,–
COc1ccc(N2Cc3ccc(O)cc3OC2=O)cc1OC [compound 3],–,–,–,–,–,–,–,–,–,–,–,–,–,no significant decrease,–,partial to complete rescue; also recorded: rescued,rescued MIF from degradation; also recorded: able to abolish the MD13 triggered degradation
